pIC50: −log10 of the molar value.
Legend:
[1] = system: Moraxella catterhalis ATCC 25238; assay: MIC, broth microdilution (CLSI), M. catarrhalis; type: cell-based
Experimental: (§1) The compounds of Formulas 1-VIII were evaluated as inhibitors of NAD+-dependent DNA ligase inhibitors. Their antimicrobial activity was evaluated against bacteria using the broth microdilution method as described by Clinical Laboratory Standards Institute (formerly NCCLS). Activity was assessed against the following bacterial strains: Staphylococcus aureus ATCC 29213, Streptococcus pneumoniae ATCC 49619, Escherichia coli ATCC 25922, E. coli CGSC 5633 (ToIC mutant), Haemophilus influenzae ATCC 49766, Streptococcus pyogenes ATCC 19615, Moraxella catterhalis ATCC 25238, Enterococcus faecalis ATCC 29212. The lowest concentration of compound which inhibited visual growth of each bacterium, the minimum inhibitory concentration (MIC), was determined.

[2] = molecular target: DNA ligase enzyme (NAD+-dependent DNA ligase) (Streptococcus pneumoniae serotype 4, UniProt Q97QT2); assay: DNA ligase AMP release assay (luciferase readout); type: biochemical; details: purified enzyme from S. pneumoniae
DNA ligase enzyme (NAD+-dependent DNA ligase), sequence (Q97QT2 whole entry): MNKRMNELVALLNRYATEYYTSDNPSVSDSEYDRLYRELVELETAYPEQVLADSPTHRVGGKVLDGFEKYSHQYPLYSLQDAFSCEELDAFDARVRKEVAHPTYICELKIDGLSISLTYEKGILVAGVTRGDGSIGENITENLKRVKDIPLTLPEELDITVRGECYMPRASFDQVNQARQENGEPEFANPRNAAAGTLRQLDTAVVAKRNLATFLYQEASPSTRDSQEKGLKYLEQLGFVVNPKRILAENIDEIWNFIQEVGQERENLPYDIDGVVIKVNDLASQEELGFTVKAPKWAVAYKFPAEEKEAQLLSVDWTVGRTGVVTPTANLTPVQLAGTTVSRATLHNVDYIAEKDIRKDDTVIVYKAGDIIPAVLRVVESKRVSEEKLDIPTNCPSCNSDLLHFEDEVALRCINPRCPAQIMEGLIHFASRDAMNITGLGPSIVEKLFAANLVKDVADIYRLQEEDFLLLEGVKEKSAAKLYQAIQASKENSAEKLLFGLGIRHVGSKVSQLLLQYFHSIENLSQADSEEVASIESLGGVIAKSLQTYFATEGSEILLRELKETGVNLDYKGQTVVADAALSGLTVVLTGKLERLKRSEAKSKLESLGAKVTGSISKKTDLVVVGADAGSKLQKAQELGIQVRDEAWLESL
Experimental: Activity against DNA ligase enzyme was measured using purified enzyme from S. pneumoniae. An AMP release assay was used to assess activity of compounds against the enzyme. AMP, released as a result of the ligation of oligonucleotides, is converted to ATP, which is then measured using luciferase enzyme. The concentration of compound which inhibited 50% of the ligation activity of the enzyme (IC50) was determined.

[3] = system: Streptococcus pyogenes ATCC 19615; assay: MIC, broth microdilution (CLSI), S. pyogenes; type: cell-based
Experimental: as §1

[4] = system: E. coli CGSC 5633 (ToIC mutant); assay: MIC, broth microdilution (CLSI), E. coli CGSC 5633; type: cell-based, Escherichia coli; set-up: unit not given beside the values
Experimental: as §1

[5] = system: Enterococcus faecalis ATCC 29212; assay: MIC, broth microdilution (CLSI), E. faecalis; type: cell-based; set-up: unit not given here
Experimental: as §1

[6] = Acute toxicity, Alamar blue cell viability, HepG2; type: cell-based; details: human
Experimental: (§2) Acute toxicity was assessed against two mammalian cell lines, HepG2 (human hepatocyte) and NIH 3T3 (mouse fibroblast). Cell viability was measured by an in vitro assay using Alamar blue. The concentration of compound which inhibited 50% of the cell growth (LC50) was determined.

[7] = system: Haemophilus influenzae ATCC 49766; assay: MIC, broth microdilution (CLSI), H. influenzae; type: cell-based; set-up: unit not given beside the values
Experimental: as §1

[8] = system: Escherichia coli ATCC 25922; assay: MIC, broth microdilution (CLSI), E. coli ATCC 25922; type: cell-based
Experimental: as §1

[9] = Acute toxicity, Alamar blue cell viability, NIH 3T3; type: cell-based; details: mouse
Experimental: as §2

[10] = system: Streptococcus pneumoniae ATCC 49619; assay: MIC, broth microdilution (CLSI), S. pneumoniae; type: cell-based
Experimental: as §1

[11] = system: Staphylococcus aureus ATCC 29213; assay: MIC, broth microdilution (CLSI), S. aureus; type: cell-based; details: lowest concentration inhibiting visual growth
Experimental: as §1

[12] = system: NAD+-dependent DNA ligase; details: specific DHFR inhibitors; background; cited from earlier work

SMILES | MIC M. catarrhalis [1] | pIC50 [2] | MIC S. pyogenes [3] | MIC E. coli CGSC 5633 [4] | MIC E. faecalis [5] | CC50 [6] [µM] | MIC H. influenzae [7] | MIC E. coli ATCC 25922 [8] | CC50 [9] [µM] | MIC S. pneumoniae [10] | MIC S. aureus ATCC 29213 [11] | inhibition of NAD+-dependent DNA ligase (in words) [12]
Cc1c(Cc2ccccc2)c(N(C)C2CCCCC2)nc2nc(N)nc(N)c12 [II-c] | 2 | 4.95 | 2 | <0.125 | 2 | 15 | >128 | 128 | 5.13 | 4 | 4 | –
Nc1nc(N)c2c3c(c(NCc4ccc(F)c(F)c4)nc2n1)CCCC3 [VII-a] | 8 | 4.76 | 32 | 0.5 | 8 | 19.2 | 64 | >128 | 1.24 | 4 | 16 | –
Cc1cc(N(C)C2CCCCC2)nc2nc(N)nc(N)c12 [IV-d] | 16 | 4.82 | 32 | 0.125 | 2 | 23.4 | 51 | 64 | 12.8 | 8 | 64 | –
CN(c1nc2nc(N)nc(N)c2c2c1CCCC2)C1CCCCC1 [VII-b] | 4 | 5.23 | 4 | <0.125 | 4 | 19.2 | 64 | 128 | 1.37 | 8 | 8 | –
Cc1c(Cc2ccccc2)c(NCc2ccc(F)c(F)c2)nc2nc(N)nc(N)c12 [II-b] | 2 | 4.90 | 1 | 0.125 | 1 | 14 | 64 | 32 | 2.94 | 4 | 4 | –
Cc1cc(N2Cc3ccccc3C2)nc2nc(N)nc(N)c12 [V-b] | 32 | 5.13 | 16 | 2 | 8 | 8.85 | >128 | 64 | 8.09 | 8 | 16 | –
COc1cc(Cc2cnc(N)nc2N)cc(OC)c1OC [trimethoprim] | – | – | – | – | – | – | – | – | – | – | – | not to inhibit
Cc1c(N(C)C2CCCCC2)nc2nc(N)nc(N)c2c1C [II-e] | 4 to 8 | 4.10 | 2 to 8 | 0.125 | 1 | 19 | – | 64 | 10.9 | 4 | 32 | –
CN(Cc1cnc2nc(N)nc(N)c2n1)c1ccc(C(=O)N[C@@H](CCC(=O)O)C(=O)O)cc1 [methotrexate] | – | – | – | – | – | – | – | – | – | – | – | not to inhibit
